Test results published in patent US6268181A, “Methods for producing a potentiator of Bacillus pesticidal activity” (Valent BioSciences, Corporation, priority 1998, dated 2001).

What was measured:
Helicoverpa zea = assay: Diet incorporation bioassay, second instar Helicoverpa zea; assay type: in vivo; settings: BIOBIT HPWP, 3.2 g Ia per BIU
Procedure: (§1) B.t.k. activity is determined by an artificial diet incorporation bioassay using third instar Spodoptera exigua larvae, second instar Helicoverpa zea larvae, third instar Spodoptera frugiperda larvae, second instar Heliothis virescens larvae, third instar Trichoplusia ni larvae, third instar Pseudoplusia includens larvae, third instar Plutella xylostella larvae, third instar Spodoptera littoralis, and third instar Mamestra brassicae larvae.
(§2) To determine the level of potentiation by adding Ia to B.t. products, and establish the range of insects that are affected, diet incorporation bioassays are performed. In the experiments with high concentrations of Ia against Spodoptera exigua (7.4-23.7 g Ia/BIU), purified Ia (70% active ingredient, 30% acetate counter ion) is used to potentiate BIOBIT™ FC (FC represents flowable concentrate). […] S. littoralis and M. brassicae are tested using FLORBAC™ HPWP and Ia.
(§3) The various B.t. products are weighed and Ia is added to give 0.1 to 237 g Ia/BIU. The volume is adjusted with 0.1% Tween™. The samples are sonicated for 1 minute and then diluted to final volume. Neat samples (without Ia) and reference substances are prepared as well. Reference substances include B.t.k. […]
(§4) After four days, insect mortality is rated. […] Percent mortality is calculated and the data is analyzed via parallel probit analysis. […]

[1] = Solubility of the active compound; assay type: physicochemical
Mamestra brassicae = assay: Diet incorporation bioassay, third instar Mamestra brassicae; assay type: in vivo; settings: FLORBAC HPWP, 2.0 g Ia per BIU
Procedure: as §1, §2, §3, §4

Lobesia bothrana = Lobesia bothrana assay (larvae drinking dilution, grape berries); assay type: in vivo; settings: BIOBIT HPWP, 2.0 g Ia per BIU
Procedure: The following procedure is used to assay for Lobesia bothrana. Vine grapes attacked by Lobesia bothrana are collected in an unsprayed field and larva is removed. A dilution series of Ia (250 μg/ml, 500 μg/ml, and 1000 μg/ml) is made in water. One larva is put in the middle of the petri dish. If the larva is observed to drink, it is moved into a petri dish with freshly cut grape berries. The larvae are stored at 22° C. for 3-4 days.

Pseudoplusia includens = assay: Diet incorporation bioassay, third instar Pseudoplusia includens; assay type: in vivo; settings: BIOBIT HPWP
Procedure: as §1, §2
(§5) The various B.t. products are weighed and Ia is added to give 0.1 to 237 g Ia/BIU. The volume is adjusted with 0.1% Tween™. The samples are sonicated for 1 minute and then diluted to final volume. Neat samples (without Ia) and reference substances are prepared as well. Reference substances include B.t.k.
(§6) Standard artificial diet composed of water, agar, sugar, casein, wheat germ, methyl paraben, sorbic acid, linseed oil, cellulose, salts, and vitamins are prepared in a 20 L heated kettle. This provides enough diet to test 10 to 12 samples with seven different concentrations of each test substance. The B.t. solutions are serially diluted to give 16 ml aliquots. Each aliquot is added to 184 g of molten diet. The mixture is subsequently homogenized and then poured into a plastic tray bearing 40 individual cells. Three control trays are prepared for each batch of diet. Once the diet has cooled and solidified, one insect of a known age (2-3 instar) is added to each cell, and the trays are covered with a perforated sheet of clear mylar. The trays are placed on racks and incubated for four days at 28° C. and 65% relative humidity.
(§7) After four days, insect mortality is rated. […] Percent mortality is calculated and the data is analyzed via parallel probit analysis. LC50 s, LC90 s, the slope of the regression lines, coefficient of variation, and potencies are estimated. Samples are run a minimum of 3 times or until three potencies are within 20% of a calculated mean for each sample. To calculate the increase in activity associated with each concentration of Ia, the LC50 of the B.t./Ia sample is corrected to reflect the amount of B.t. in the sample. The Lc50 s of the paired neat samples are divided by the corrected LC50 values to give the fold reduction in LC50 associated with Ia.

Heliothis virescens = assay: Diet incorporation bioassay, second instar Heliothis virescens; assay type: in vivo; settings: BIOBIT HPWP, 3.2 g Ia per BIU
Procedure: as §1, §2, §3, §4

Spodoptera exigua [2] = assay: Spodoptera exigua micro-bioassay (potentiation of Bt Cry protein by Ia); assay type: in vivo
Procedure: Activity is monitored by a Spodoptera exigua micro-bioassay, and purity is determined by capillary electrophoresis. […] The trays containing the various samples are air dried. Two to four 2nd or early 3rd instar Spodoptera exigua are added to the wells containing the dried sample. The wells are sealed with mylar poked with holes and are incubated for 2-3 days at 30° C. Degree of stunting and percent mortality are then recorded. Typically, 5 replicate wells are run for each sample.
*Mortality = # insects dead/# total insects after 2 days
.dagger.Stunt score is defined by the average size of the live insect
larvae at the end of the bioassay: 4.0 = untreated control, 3.0 = 75% size
of untreated control, 2.0 = 50% size of untreated control, 1.0 = 25% size
of untreated control, 0.0 = no growth or size unchanged from start of […]

Plutella xylostella = assay: Diet incorporation bioassay, third instar Plutella xylostella; assay type: in vivo; settings: BIOBIT HPWP
Procedure: as §1, §2, §5, §6, §7

Spodoptera frugiperda = assay: Diet incorporation bioassay, third instar Spodoptera frugiperda; assay type: in vivo; settings: BIOBIT HPWP
Procedure: as §1, §2, §5, §6, §7

Trichoplusia ni = assay: Diet incorporation bioassay, third instar Trichoplusia ni; assay type: in vivo; settings: BIOBIT HPWP
Procedure: as §1, §2, §5, §6, §7

Spodoptera littoralis = assay: Diet incorporation bioassay, third instar Spodoptera littoralis; assay type: in vivo; settings: FLORBAC HPWP, 2.0 g Ia per BIU
Procedure: as §1, §2, §3, §4

[3] = Stability of Ia determined by bioassay; assay type: physicochemical
Procedure: Activity is monitored by a Spodoptera exigua micro-bioassay, and purity is determined by capillary electrophoresis. Sample consisting of 50 μl of Ia and 50 μl of CryIA(c) protein (15 μg/ml) purified from BIOBIT™ FC (100 μl), is applied to individual wells of a jelly tray containing 500 μl of solidified artificial insect diet. The trays containing the various samples are air dried. Two to four 2nd or early 3rd instar Spodoptera exigua are added to the wells containing the dried sample. The wells are sealed with mylar poked with holes and are incubated for 2-3 days at 30° C. Degree of stunting and percent mortality are then recorded. Typically, 5 replicate wells are run for each sample.
Further, it is stable when subjected to direct sunlight for at least 10 hours. Ia is stable at pH 2 for 3 days, but unstable at pH 12.

Spodoptera exigua [4] = assay: Diet incorporation bioassay, third instar Spodoptera exigua; assay type: in vivo
Procedure: as §1, §2, §5, §6, §7
The potentiation of various produces on Spodoptera exigua by Ia is determined using diet incorporation bioassays described supra. Ia/B.t. product mixture is incorporated into an agar-based wheat germ casein diet. The insects are placed on the diet for four days and held at 28° C. Mortality is recorded and analyzed using probit analysis. LC50, LC90 and potency are calculated from matched product lacking Ia. The results shown in Table V indicate that Ia potentiate various B.t.k. and B.t.a. products obtained from various sources. The B.t. strains contained in these products are described in Section 5.2., supra.

NC(=O)NCC(NC(=O)C(O)C(O)C(N)C(O)CC(O)C(N)CO)C(N)=O (centres unmarked) [Ia]
Increase in activity, Fold reduction in LC50 (Helicoverpa zea): 12.6 Fold | solubility in organic solvents ([1]; organic solvents): not soluble in organic solvents | water solubility ([1]; water): water soluble | Increase in activity, Fold reduction in LC50 (Mamestra brassicae): 4.9 Fold | Increase in activity, Fold reduction in LC50 (Lobesia bothrana): 3.0 Fold | Increase in activity, Fold reduction in LC50 (Pseudoplusia includens; 0.1 g Ia per BIU): 0 Fold | Increase in activity, Fold reduction in LC50 (Pseudoplusia includens; 0.2 g Ia per BIU): 1.2 Fold | Increase in activity, Fold reduction in LC50 (Pseudoplusia includens; 0.8 g Ia per BIU): 2.1 Fold | Increase in activity, Fold reduction in LC50 (Pseudoplusia includens; 2.0 g Ia per BIU): 2.4 Fold | Increase in activity, Fold reduction in LC50 (Pseudoplusia includens; 4.0 g Ia per BIU): 3.4 Fold | Increase in activity, Fold reduction in LC50 (Heliothis virescens): 4.2 Fold | potentiation of crystal delta-endotoxin (Spodoptera exigua [2]; Bacillus thuringiensis subsp. kurstaki and aizawai crystal delta-endotoxin proteins): potentiate the activity | level of potentiation (Spodoptera exigua [2]; CryIC inclusions): 250 fold | potentiation of pesticidal activity (Spodoptera exigua [2]; CryII and CryIC inclusions): also potentiated | potentiation (Spodoptera exigua [2]; CryII inclusions): 125 fold | Mortality (Spodoptera exigua [2]; Ia alone, no Bt protein, after 2 days): 0/5 | Stunt Score (Spodoptera exigua [2]; Ia alone, no Bt protein, 4.0 = untreated control, 0.0 = no growth): 4.0 | potentiation of pesticidal activity (Spodoptera exigua [2]; formulated B.t.k., isolated crystals, full-length or truncated CryIA proteins): all potentiated | level of potentiation (Spodoptera exigua [2]; full-length CryIA(c)): approximately 320 fold | potentiation of pesticidal activity (Spodoptera exigua [2]; individual truncated CryIA(a), (b), and (c) proteins): potentiate the activity | level of potentiation (Spodoptera exigua [2]; truncated CryIA proteins, CryII and CryIC inclusions): 100-200 fold | activity of Ia alone (Spodoptera exigua [2]; without Cry protein): inactive alone | Increase in activity, Fold reduction in LC50 (Plutella xylostella; 0.2 g Ia per BIU): 1.6 Fold | Increase in activity, Fold reduction in LC50 (Plutella xylostella; 0.8 g Ia per BIU): 1.3 Fold | Increase in activity, Fold reduction in LC50 (Plutella xylostella; 2.0 g Ia per BIU): 1.4 Fold | Increase in activity, Fold reduction in LC50 (Plutella xylostella; 4.0 g Ia per BIU): 1.9 Fold | Increase in activity, Fold reduction in LC50 (Spodoptera frugiperda; 0.2 g Ia per BIU): 2.2 Fold | Increase in activity, Fold reduction in LC50 (Spodoptera frugiperda; 0.8 g Ia per BIU): 3.9 Fold | Increase in activity, Fold reduction in LC50 (Spodoptera frugiperda; 2.0 g Ia per BIU): 7.2 Fold | Increase in activity, Fold reduction in LC50 (Spodoptera frugiperda; 4.0 g Ia per BIU): 11.6 Fold | Increase in activity, Fold reduction in LC50 (Trichoplusia ni; 0.1 g Ia per BIU): 1.1 Fold | Increase in activity, Fold reduction in LC50 (Trichoplusia ni; 0.2 g Ia per BIU): 1.2 Fold | Increase in activity, Fold reduction in LC50 (Trichoplusia ni; 2.0 g Ia per BIU): 2.0 Fold | Increase in activity, Fold reduction in LC50 (Trichoplusia ni; 4.0 g Ia per BIU): 3.1 Fold | Increase in activity, Fold reduction in LC50 (Spodoptera littoralis): 8.6 Fold | stability ([3]; autoclaving (>190C)): loses all activity | stability ([3]; boiling for 5 minutes): stable | stability ([3]; direct sunlight for at least 10 hours): stable | stability ([3]; exposed to periodic acid or concentrated HCl): lose all activity | stability ([3]; pH 2 for 3 days): stable | stability ([3]; pH 12): unstable | Increase in activity, Fold reduction in LC50 (Spodoptera exigua [4]; BIOBIT FC, 7.4 g Ia per BIU, purified Ia): 13 Fold | Increase in activity, Fold reduction in LC50 (Spodoptera exigua [4]; BIOBIT FC, 15 g Ia per BIU, purified Ia): 26 Fold | Increase in activity, Fold reduction in LC50 (Spodoptera exigua [4]; BIOBIT FC, 30 g Ia per BIU, purified Ia): 34 Fold | Increase in activity, Fold reduction in LC50 (Spodoptera exigua [4]; BIOBIT FC, 118 g Ia per BIU, purified Ia): 59 Fold | Increase in activity, Fold reduction in LC50 (Spodoptera exigua [4]; BIOBIT FC, 237 g Ia per BIU, purified Ia): 79 Fold | Increase in activity, Fold reduction in LC50 (Spodoptera exigua [4]; BIOBIT HPWP, 0.1 g Ia per BIU): 1.5 Fold | Increase in activity, Fold reduction in LC50 (Spodoptera exigua [4]; BIOBIT HPWP, 0.2 g Ia per BIU): 1.7 Fold | Increase in activity, Fold reduction in LC50 (Spodoptera exigua [4]; BIOBIT HPWP, 2.0 g Ia per BIU): 4.3 Fold | Increase in activity, Fold reduction in LC50 (Spodoptera exigua [4]; BIOBIT HPWP, 4.0 g Ia per BIU): 7.5 Fold
